From patent EP0262903A2, “New acyl derivatives of 20-modified tylosin and desmycosin compounds” (priority 1986, dated 1988)
In brackets after ≈: the same amount, converted by molar mass. Read-outs that look alike come from different tables or passages of the source.

Columns and labels:
[1] = tested on: Streptococcus pyogenes C203; assay: ED50 in mice experimentally infected with S. pyogenes C203; assay type: in vivo; conditions: two doses given 1 and 4 hours post-infection, dose protecting 50% of the test animals
Description: The formula 1 compounds have shown in vivo antimicrobial activity against experimentally-induced infections in laboratory animals. When two doses of test compound were administered to mice experimentally infected with S. pyogenes C203, the activity observed was measured as an ED₅₀ value [effective dose in mg/kg to protect 50% of the test animals: see Warren Wick, et 5 al., J. Bacteriol. 81, 233-235 (1961)].

[2] = tested on: Mycoplasma gallisepticum 29C; assay: MIC, conventional broth-dilution microtiter test; assay type: cell-based; conditions: Mycoplasmoides gallisepticum
Description: (§1) The MIC's in Table II were determined by standard agar-dilution assays. The MIC's in Table III were obtained using conventional broth-dilution microtiter tests.

[3] = tested on: Pasteurella multocida 68C; assay: MIC, conventional broth-dilution microtiter test; assay type: cell-based
Description: as §1

[4] = tested on: Pasteurella hemolytica 23C; assay: MIC, conventional broth-dilution microtiter test; assay type: cell-based
Description: as §1

Mycoplasma synoviae 40A = assay: MIC, conventional broth-dilution microtiter test; assay type: cell-based; conditions: Mycoplasmopsis synoviae
Description: as §1

[5] = tested on: Pasteurella multocida 40G; assay: MIC, conventional broth-dilution microtiter test; assay type: cell-based
Description: as §1

Staphylococcus aureus = assay: MIC, conventional broth-dilution microtiter test; assay type: cell-based
Description: as §1

[6] = tested on: Mycoplasma gallisepticum 36H; assay: MIC, conventional broth-dilution microtiter test; assay type: cell-based; conditions: Mycoplasmoides gallisepticum
Description: as §1

[7] = tested on: Pasteurella hemolytica 22C; assay: MIC, conventional broth-dilution microtiter test; assay type: cell-based
Description: as §1

[8] = tested on: Pasteurella hemolytica 41D; assay: MIC, conventional broth-dilution microtiter test; assay type: cell-based
Description: as §1

[9] = tested on: Mycoplasma hyopneumoniae S5972; assay: MIC, conventional broth-dilution microtiter test; assay type: cell-based; conditions: Mesomycoplasma hyopneumoniae
Description: as §1

[10] = tested on: Pasteurella multocida 60A; assay: MIC, conventional broth-dilution microtiter test; assay type: cell-based; conditions: Avian isolate
Description: as §1

[11] = tested on: Mycoplasma gallisepticum 15E; assay: MIC, conventional broth-dilution microtiter test; assay type: cell-based; conditions: Mycoplasmoides gallisepticum
Description: as §1

[12] = tested on: Pasteurella multocida 22A; assay: MIC, conventional broth-dilution microtiter test; assay type: cell-based
Description: as §1

Streptococcus sp. 19F = assay: MIC, conventional broth-dilution microtiter test; assay type: cell-based
Description: as §1

[13] = tested on: Pasteurella multocida 17E; assay: MIC, conventional broth-dilution microtiter test; assay type: cell-based; conditions: Bovine isolate
Description: as §1

Mycoplasma hyorhinis 29E = assay: MIC, conventional broth-dilution microtiter test; assay type: cell-based
Description: as §1

[14] = tested on: Bordetella bronchiseptica; assay: MIC, conventional broth-dilution microtiter test; assay type: cell-based
Description: as §1

[15] = tested on: Staphylococcus epidermidis EPI1; assay: MIC, standard agar-dilution assay; assay type: cell-based; conditions: Staphylococcus epidermidis EPI1; agar dilution; read-out: MIC
Description: as §1

[16] = tested on: Haemophilus influenzae C.L.; assay: MIC, standard agar-dilution assay; assay type: cell-based; conditions: Haemophilus influenzae C.L.; Ampicillin-sensitive strain; agar dilution; read-out: MIC
Description: as §1

[17] = tested on: Haemophilus influenzae 76; assay: MIC, standard agar-dilution assay; assay type: cell-based; conditions: Haemophilus influenzae 76; Ampicillin-resistant strain; agar dilution; read-out: MIC
Description: as §1

Escherichia coli EC14 = assay: MIC, standard agar-dilution assay; assay type: cell-based; conditions: Escherichia coli EC14; agar dilution; read-out: MIC
Description: as §1

[18] = tested on: Streptococcus faecalis X66; assay: MIC, standard agar-dilution assay; assay type: cell-based; conditions: Enterococcus faecalis; Streptococcus faecalis X66; agar dilution; read-out: MIC
Description: as §1

[19] = tested on: Staphylococcus aureus V41; assay: MIC, standard agar-dilution assay; assay type: cell-based; conditions: Staphylococcus aureus V41; Penicillin-resistant strain; agar dilution; read-out: MIC
Description: as §1

[20] = tested on: Streptococcus pneumoniae Park I; assay: MIC, standard agar-dilution assay; assay type: cell-based; conditions: Streptococcus pneumoniae Park I; agar dilution; read-out: MIC
Description: as §1

[21] = tested on: Streptococcus pyogenes C203; assay: MIC, standard agar-dilution assay; assay type: cell-based; conditions: Streptococcus pyogenes C203; agar dilution; read-out: MIC
Description: as §1

[22] = tested on: Pseudomonas aeruginosa X239; assay: MIC, standard agar-dilution assay; assay type: cell-based; conditions: Pseudomonas aeruginosa X239; agar dilution; read-out: MIC
Description: as §1

[23] = tested on: Staphylococcus aureus X1.1; assay: MIC, standard agar-dilution assay; assay type: cell-based; conditions: Staphylococcus aureus X1.1; agar dilution; read-out: MIC
Description: as §1

[24] = tested on: Staphylococcus aureus S13E; assay: MIC, standard agar-dilution assay; assay type: cell-based
Description: as §1

[25] = tested on: Klebsiella pneumoniae X68; assay: MIC, standard agar-dilution assay; assay type: cell-based
Description: as §1

[26] = tested on: Staphylococcus epidermidis 222; assay: MIC, standard agar-dilution assay; assay type: cell-based; conditions: Staphylococcus epidermidis 222; agar dilution; read-out: MIC
Description: as §1

[27] = tested on: Streptococcus faecalis 2041; assay: MIC, standard agar-dilution assay; assay type: cell-based; conditions: Enterococcus faecalis; Streptococcus faecalis 2041; agar dilution; read-out: MIC
Description: as §1

[28] = tested on: Staphylococcus aureus X400; assay: MIC, standard agar-dilution assay; assay type: cell-based; conditions: Staphylococcus aureus X400; Methicillin-resistant strain; agar dilution; read-out: MIC
Description: as §1

[29] = C203, mice, oral, read-out: ED50 Oral
[30] = C203, sc, mice, subcutaneous, read-out: ED50 Subcutaneous

SMILES | ED50 [1, 29] [mg/kg] | ED50 [1, 30] [mg/kg] | MIC [2] [µg/mL] | MIC [3] [µg/mL] | MIC [4] [µg/mL] | MIC [5] [µg/mL] | MIC (Staphylococcus aureus) [µg/mL] | MIC [6] [µg/mL] | MIC [7] [µg/mL] | MIC [8] [µg/mL] | MIC [9] [µg/mL] | MIC [10] [µg/mL] | MIC [11] [µg/mL] | MIC [12] [µg/mL] | MIC (Streptococcus sp. 19F) [µg/mL] | MIC [13] [µg/mL] | MIC [14] [µg/mL] | MIC [15] [µg/mL] | MIC [16] [µg/mL] | MIC [17] [µg/mL] | also measured
CCC1OC(=O)CC(O)C(C)C(OC2OC(C)C(O)C(N(C)C)C2O)C(CCOc2ccccc2)CC(C)C(=O)C=CC(C)=CC1COC1OC(C)C(OC(C)=O)C(OC)C1OC (stereo not drawn) [Compound 2, 4ʹʹ-O-Acetyl-20-DH-20-O-phenyl-desmycosin] | 10.9 | 4.46 | 0.78 (≈ 0.874 µM) | 25 (≈ 28 µM) | 50 (≈ 56 µM) | 50 (≈ 56 µM) | 1.56 (≈ 1.75 µM) | 50 (≈ 56 µM) | > 50 | > 50 | 25 (≈ 28 µM) | > 50 | 50 (≈ 56 µM) | > 50 | 12.5 (≈ 14 µM) | 50 (≈ 56 µM) | > 50 | 2 (≈ 2.24 µM) | 128 (≈ 143 µM) | 128 (≈ 143 µM) | MIC (Mycoplasma synoviae 40A): 3.12 µg/mL (≈ 3.5 µM); MIC (Mycoplasma hyorhinis 29E): 50 µg/mL (≈ 56 µM); MIC (Escherichia coli EC14): > 128 µg/mL; MIC [18]: 16 µg/mL (≈ 17.9 µM); MIC [19]: 2 µg/mL (≈ 2.24 µM); MIC [20]: 2 µg/mL (≈ 2.24 µM); MIC [21]: 1 µg/mL (≈ 1.12 µM); MIC [22]: > 128 µg/mL; MIC [23]: 2 µg/mL (≈ 2.24 µM); MIC [24]: 2 µg/mL (≈ 2.24 µM); MIC ([25]; Klebsiella pneumoniae X68, agar dilution, read-out: MIC): > 128 µg/mL; MIC [26]: 1 µg/mL (≈ 1.12 µM); MIC [27]: 32 µg/mL (≈ 35.9 µM); MIC [28]: 2 µg/mL (≈ 2.24 µM)
CCC1OC(=O)CC(O)C(C)C(OC2OC(C)C(O)C(N(C)C)C2O)C(CCOc2ccccc2)CC(C)C(=O)C=CC(C)=CC1COC1OC(C)C(OC(=O)CN2CCCC2)C(OC)C1OC (stereo not drawn) [Compound 13, 20-DH-20-O-Phenyl-4ʹʹ-O-(pyrrolidin-1-ylacetyl)-desmycosin] | 24 | 10 | 1.56 (≈ 1.62 µM) | 25 (≈ 26 µM) | 50 (≈ 52 µM) | 25 (≈ 26 µM) | 3.12 (≈ 3.25 µM) | 50 (≈ 52 µM) | > 50 | > 50 | > 50 | 50 (≈ 52 µM) | 50 (≈ 52 µM) | 50 (≈ 52 µM) | 6.25 (≈ 6.5 µM) | 50 (≈ 52 µM) | > 50 | 1 (≈ 1.04 µM) | 32 (≈ 33.3 µM) | 32 (≈ 33.3 µM) | MIC (Escherichia coli EC14): > 128 µg/mL; MIC [18]: 16 µg/mL (≈ 16.6 µM); MIC [19]: 1 µg/mL (≈ 1.04 µM); MIC [20]: 2 µg/mL (≈ 2.08 µM); MIC [21]: 1 µg/mL (≈ 1.04 µM); MIC [22]: > 128 µg/mL; MIC [23]: 0.5 µg/mL (≈ 0.52 µM); MIC [24]: 1 µg/mL (≈ 1.04 µM); MIC ([25]; Klebsiella pneumoniae, X68): > 128 µg/mL; MIC [26]: 0.5 µg/mL (≈ 0.52 µM); MIC [27]: 16 µg/mL (≈ 16.6 µM); MIC [28]: 1 µg/mL (≈ 1.04 µM)
